Assay [1] has as its system phosphorylation of Cdc2 Y15 (Wee1 substrate) in A427 cells. Kind of assay: Phosphorylated Cdc2 MSD Electrochemiluminescence Assay. The conditions noted are these: Homo sapiens, A-427, class symbols, read-out: A427 pCDC2 MSD IC50. The format is cell-based. The gist of the method: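 Read-out: percent residual phospho-Cdc2 Y15 relative to DMSO and positive-control Wee1 inhibitor, measured by MSD electrochemiluminescence capture/detection antibody assay in cell lysates. A427 cells received duplicate 3-fold compound dilution series 20 h post-seeding, with 6 h total incubation at 37 °C.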

For another assay, the target named is T1, Wee1 kinase domain (Homo sapiens, UniProt P30291).
T1 construct: Wee1 kinase domain was purchased from Carna (catalog #05-177); purchased Carna 05-177
T1 sequence (P30291 299-569 limits assumed): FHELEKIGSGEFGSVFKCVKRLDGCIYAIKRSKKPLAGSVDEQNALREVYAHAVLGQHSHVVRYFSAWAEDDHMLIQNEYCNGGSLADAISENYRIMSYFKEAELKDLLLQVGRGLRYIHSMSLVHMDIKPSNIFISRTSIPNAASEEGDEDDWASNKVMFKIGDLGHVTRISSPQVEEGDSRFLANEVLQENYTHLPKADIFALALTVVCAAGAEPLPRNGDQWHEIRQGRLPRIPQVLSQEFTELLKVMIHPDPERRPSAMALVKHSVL
Kind of assay: Wee1 Kinase Biochemical Assay (ADP-Glo). The conditions noted are these: class symbols; 1 nM Wee1 enzyme, 15 uM ATP, 4 hours at 25° C. The gist of the method:
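ADP-Glo luminescence readout of ADP produced by 1 nM kinase domain phosphorylating Poly(Lys,Tyr 4:1) (2 ng/mL) at 15 uM ATP. Reaction ran 4 h, 25 °C, in Tris/MgCl2 buffer with BSA and DTT. Inhibition scaled between DMSO (high) and saturating control inhibitor (low).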

Turning to `CC(C)n1ccc(N2c3nc(Nc4ccc(N5CCN(C)CC5)cc4)ncc3[C@@]3(C)COC(C)(C)C[C@@H]23)n1` (single isomer, unassigned) [Example 721], the IC50 (commonly the concentration needed to halve the response being measured) is 100 to 1000 nM in assay [1] and less than 10 nM against Wee1 kinase domain.

Take `CN1CCN(c2ccc(Nc3ncc4c(n3)N(c3ccccn3)[C@@H]3CC(C)(C)OC[C@]43C)cc2)CC1` (single isomer, unassigned) [Example 722]: the concentration for half-maximal inhibition (IC50) in assay [1] was 100 to 1000 nM; against Wee1 kinase domain, less than 10 nM.

On to `C[C@H]1CCC(=O)N1c1cccc(N2c3nc(Nc4ccc(N5CC6(CN(C)C6)C5)cc4)ncc3[C@@]3(C)COC(C)(C)C[C@@H]23)n1` (single isomer, unassigned) [Example 725], for which the IC50 in assay [1] was 100 to 1000 nM; against Wee1 kinase domain, less than 10 nM.

As for `CN1CCN(c2ccc(Nc3ncc4c(n3)N(c3nccs3)[C@@H]3CC(C)(C)OC[C@]43C)cc2)CC1` (single isomer, unassigned) [Example 726], the values for the half-maximal inhibitory concentration (IC50) (in assay [1]; at Wee1 kinase domain) were 100 to 1000 nM and less than 10 nM, respectively.

With `C[C@H]1CCC(=O)N1c1cccc(N2c3nc(Nc4ccc(C5CN(C)C5)cc4)ncc3[C@@]3(C)COC(C)(C)C[C@@H]23)n1` (single isomer, unassigned) [Example 727], the half-maximal inhibitory concentration (IC50) is less than 100 nM in assay [1] and less than 10 nM against Wee1 kinase domain.

For `CN1CCN(c2ccc(Nc3ncc4c(n3)N(c3cccc(N5C(=O)OCC5(C)C)n3)[C@@H]3CC(C)(C)OC[C@]43C)cc2)CC1` (single isomer, unassigned) [Example 728], the IC50 in assay [1] was 100 to 1000 nM; against Wee1 kinase domain, less than 10 nM.

Take `CN1CCN(c2ccc(Nc3ncc4c(n3)N(c3cccc(N5C(=O)CCC5(C)C)n3)[C@@H]3CC(C)(C)OC[C@]43C)cc2)CC1` (single isomer, unassigned) [Example 729]: the half-inhibitory concentration (IC50) in assay [1] is 100 to 1000 nM; on Wee1 kinase domain, less than 10 nM.

In the case of `CNCc1ccc(Nc2ncc3c(n2)N(c2cccc(N4C(=O)CC[C@@H]4C)n2)[C@@H]2CC(C)(C)OC[C@]32C)cc1` (single isomer, unassigned) [Example 730], the concentration for half-maximal inhibition (IC50) in assay [1] was 100 to 1000 nM; against Wee1 kinase domain, less than 10 nM.

For the compound `CN1CCN(c2ccc(Nc3ncc4c(n3)N(c3ccn(C5CC5)n3)[C@@H]3CC(C)(C)OC[C@]43C)cc2)CC1` (single isomer, unassigned) [Example 739], the figures for the concentration for half-maximal inhibition (IC50) (in assay [1]; against Wee1 kinase domain) were 1000 to 10000 nM and less than 10 nM, respectively.

With `CN1CCN(c2ccc(Nc3ncc4c(n3)N(c3ccn(C5COC5)n3)[C@@H]3CC(C)(C)OC[C@]43C)cc2)CC1` (single isomer, unassigned) [Example 742], the 50% inhibitory concentration (IC50) in assay [1] was 1000 to 10000 nM; at Wee1 kinase domain it was less than 10 nM.

Consider `CCn1ccc(N2c3nc(Nc4ccc(N5CCN(C)CC5)cc4)ncc3[C@@]3(C)COC(C)(C)C[C@@H]23)n1` (single isomer, unassigned) [Example 744], for which the IC50 in assay [1] is 1000 to 10000 nM; on Wee1 kinase domain, less than 10 nM.

As for `CC1(C)C[C@H]2N(c3cccc(N=S(C)(C)=O)n3)c3nc(N)ncc3[C@@]2(C)CO1` (single isomer, unassigned) [Example 746], the concentration for half-maximal inhibition (IC50) in assay [1] was 100 to 1000 nM; against Wee1 kinase domain, less than 10 nM.

For `C[C@H]1CCC(=O)N1c1cccc(N2c3nc(Nc4ccc(N5C[C@H]6C[C@@H](C5)N6C)cc4)ncc3[C@@]3(C)COC(C)(C)C[C@@H]23)n1` (single isomer, unassigned) [Example 748], the figures for the IC50 (in assay [1]; against Wee1 kinase domain) were 100 to 1000 nM and less than 10 nM, respectively.

Take `CN1CCN(c2ccc(Nc3ncc4c(n3)N(c3cccc(S(C)(=O)=O)n3)[C@@H]3CC(C)(C)OC[C@]43C)cc2)CC1` (single isomer, unassigned) [Example 749]: the IC50 is 100 to 1000 nM in assay [1] and less than 10 nM against Wee1 kinase domain.

With `CN=[S@](C)(=O)c1cccc(N2c3nc(Nc4ccc(C5CCN(C)CC5)cc4)ncc3[C@@]3(C)COC(C)(C)C[C@@H]23)n1` (single isomer, unassigned) [Example 751], the values for the IC50 (in assay [1]; at Wee1 kinase domain) were 100 to 1000 nM and less than 10 nM, respectively.

For `CN=[S@@](C)(=O)c1cccc(N2c3nc(Nc4ccc(C5CCN(C)CC5)cc4)ncc3[C@@]3(C)COC(C)(C)C[C@@H]23)n1` (single isomer, unassigned) [Example 752], the IC50 in assay [1] was 100 to 1000 nM; against Wee1 kinase domain it was less than 10 nM.

For the compound `CN1CCN(c2ccc(Nc3ncc4c(n3)N(c3cccc(P(C)(C)=O)n3)[C@@H]3CC(C)(C)OC[C@]43C)cc2)CC1` (single isomer, unassigned) [Example 753], the results for the half-inhibitory concentration (IC50) (in assay [1]; against Wee1 kinase domain) were 100 to 1000 nM and less than 10 nM, respectively.

For `CN1CC(c2ccc(Nc3ncc4c(n3)N(c3cccc(N=S5(=O)CCCC5)n3)[C@@H]3CC(C)(C)OC[C@]43C)cc2)C1` (single isomer, unassigned) [Example 754], the figures for the IC50 (in assay [1]; against Wee1 kinase domain) were less than 100 nM and less than 10 nM, respectively.

`CN1CCC(c2ccc(Nc3ncc4c(n3)N(c3cccc(S(C)(=O)=O)n3)[C@@H]3CC(C)(C)OC[C@]43C)cc2)CC1` (single isomer, unassigned) [Example 757]: the half-inhibitory concentration (IC50) in assay [1] is 100 to 1000 nM; against Wee1 kinase domain it was less than 10 nM.

With `COc1cccc(N2c3nc(Nc4ccc(N5CCN(C)CC5)cc4)ncc3[C@@]3(C)COC(C)(C)C[C@@H]23)n1` (single isomer, unassigned) [Example 758], the values for the concentration for half-maximal inhibition (IC50) (in assay [1]; against Wee1 kinase domain) were 100 to 1000 nM and less than 10 nM, respectively.

Consider `Cc1cccc(N2c3nc(Nc4ccc(N5CCN(C)CC5)cc4)ncc3[C@@]3(C)COC(C)(C)C[C@@H]23)n1` (single isomer, unassigned) [Example 759], for which the concentration for half-maximal inhibition (IC50) in assay [1] is 100 to 1000 nM; against Wee1 kinase domain, less than 10 nM.

Turning to `CN=[S@@](C)(=O)c1cccc(N2c3nc(Nc4ccc(N5CCN(C)CC5)cc4)ncc3[C@@]3(C)COC(C)(C)C[C@@H]23)n1` (single isomer, unassigned) [Example 765], the IC50 in assay [1] is 100 to 1000 nM; against Wee1 kinase domain, less than 10 nM.

For the compound `CN=[S@](C)(=O)c1cccc(N2c3nc(Nc4ccc(N5CCN(C)CC5)cc4)ncc3[C@@]3(C)COC(C)(C)C[C@@H]23)n1` (single isomer, unassigned) [Example 766], the IC50 in assay [1] is 100 to 1000 nM; against Wee1 kinase domain, less than 10 nM.

Consider `CNCc1cccc(N2c3nc(Nc4ccc(-n5nccn5)cc4)ncc3[C@@]3(C)COC(C)(C)C[C@@H]23)n1` (single isomer, unassigned) [Example 767], for which the IC50 is 100 to 1000 nM in assay [1] and less than 10 nM at Wee1 kinase domain.

As for `CC1(C)C[C@H]2N(c3cccc(N=S(C)(C)=O)n3)c3nc(NC(=O)OC4CCOCC4)ncc3[C@@]2(C)CO1` (single isomer, unassigned) [Example 772], the IC50 is 100 to 1000 nM in assay [1] and less than 10 nM against Wee1 kinase domain.

With `CN1CCN(c2ccc(Nc3ncc4c(n3)N(c3cccc(C5CC5)n3)[C@@H]3CC(C)(C)OC[C@]43C)cc2)CC1` (single isomer, unassigned) [Example 774], the 50% inhibitory concentration (IC50) is 100 to 1000 nM in assay [1] and less than 10 nM against Wee1 kinase domain.

Take `CN1CC2(C1)CN(c1ccc(Nc3ncc4c(n3)N(c3cccc(P(C)(C)=O)n3)[C@@H]3CC(C)(C)OC[C@]43C)cc1)C2` (single isomer, unassigned) [Example 775]: the IC50 in assay [1] is 100 to 1000 nM; at Wee1 kinase domain it was less than 10 nM.

With `C[C@H]1CCC(=O)N1c1cccc(N2c3nc(Nc4ccc(N5CC6(CN(C)C6)C5)cc4)ncc3[C@@]3(C)COCC[C@@H]23)n1` (single isomer, unassigned) [Example 776], the IC50 in assay [1] was 100 to 1000 nM; on Wee1 kinase domain it was less than 10 nM.

The values above are taken from patent US20260166039A1 (SCHRÖDINGER, INC., priority 2022, published 2026).
